The text below walks through data of ChEMBL document CHEMBL5647700, “Crystal structure of an angiogenesis inhibitor bound to the FGF receptor tyrosine kinase domain” (EMBO J, 1998).

The subject of data set [1] is Mus musculus. In words: Inhibition of FGF-induced neovascularization in Swiss Webster mouse angiogenesis model at 1 mg/kg, ip starting 3 days prior to or on the day of pellet implantation and then daily until day 5 post-implantation by Corneal neovascularization assay. Format: functional. To be noted: 192 h, time 8 day.
The nature of data set [2]: Inhibition of PDGFR cytoplasmic domain (unknown origin) in presence of ATP. More on the design: species or system Homo sapiens.
The subject of data set [3] is Mus musculus. Kind of data set: Inhibition of VEGF-induced neovascularization in Swiss Webster mouse angiogenesis model at 2 mg/kg, ip starting 3 days prior to or on the day of pellet implantation and then daily until day 5 post-implantation by Corneal neovascularization assay. Format: functional. As to conditions: 192 h, time 8 day.
A short description of data set [4]: Inhibition of VEGFR2 (unknown origin) expressed in mouse NIH/3T3 cells assessed as reduction in aFGF and heparin-induced autophosphorylation incubated for 5 mins before stimulation for 5 mins with aFGF and heparin by SDS-PAGE and immunoblot method. Format: cell-based. To be noted: NIH3T3.
Data set [5] concerns the target Fibroblast growth factor receptor 1 (Mus musculus, UniProt P16092). Kind of data set: Inhibition of FGFR1 autophosphorylation in mouse NIH/3T3 cells assessed as reduction in aFGF and heparin-induced autophosphorylation incubated for 5 mins before stimulation for 5 mins with aFGF and heparin by SDS-PAGE and immunoblot method. Format: cell-based.
Data set [6] can be described thus: Toxicity in bFGF-induced Swiss Webster mouse angiogenesis model at 1 mg/kg, ip starting 3 days prior to or on the day of pellet implantation and then daily until day 5 post-implantation by Corneal neovascularization assay. As to conditions: in vivo, 192 h, time 8 day. Format: organism-based.
The target in data set [7] is Dual specificity mitogen-activated protein kinase kinase; MEK1/2 (Homo sapiens, UniProt P36507+Q02750). In words: Inhibition of MEK (unknown origin) in presence of ATP. It is filed as protein assay.
The target of data set [8] is Proto-oncogene tyrosine-protein kinase Src (Homo sapiens, UniProt P12931). In words: Inhibition of c-SRC (unknown origin) in presence of ATP.
Sequence of Proto-oncogene tyrosine-protein kinase Src (P12931 2-536 limits assumed): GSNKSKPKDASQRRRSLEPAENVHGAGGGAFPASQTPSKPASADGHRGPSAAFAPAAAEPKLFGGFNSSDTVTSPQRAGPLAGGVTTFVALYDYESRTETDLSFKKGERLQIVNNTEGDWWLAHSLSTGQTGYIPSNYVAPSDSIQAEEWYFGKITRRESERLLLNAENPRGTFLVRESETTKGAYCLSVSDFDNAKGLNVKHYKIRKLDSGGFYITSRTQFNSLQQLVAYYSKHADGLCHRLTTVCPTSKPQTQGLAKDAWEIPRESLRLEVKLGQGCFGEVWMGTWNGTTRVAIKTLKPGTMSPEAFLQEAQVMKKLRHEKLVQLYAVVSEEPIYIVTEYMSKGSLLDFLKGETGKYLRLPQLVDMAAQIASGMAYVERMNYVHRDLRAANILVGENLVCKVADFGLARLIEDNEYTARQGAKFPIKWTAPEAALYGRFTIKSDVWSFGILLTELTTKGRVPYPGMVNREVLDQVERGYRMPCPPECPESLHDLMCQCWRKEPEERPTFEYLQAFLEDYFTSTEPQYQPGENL
Data set [9] in a line: Inhibition of PKCalpha/beta/gamma isotype mixtures (unknown origin) in presence of ATP. The arrangement: species or system Homo sapiens.

Sequence of Fibroblast growth factor receptor 1 (P16092 whole entry): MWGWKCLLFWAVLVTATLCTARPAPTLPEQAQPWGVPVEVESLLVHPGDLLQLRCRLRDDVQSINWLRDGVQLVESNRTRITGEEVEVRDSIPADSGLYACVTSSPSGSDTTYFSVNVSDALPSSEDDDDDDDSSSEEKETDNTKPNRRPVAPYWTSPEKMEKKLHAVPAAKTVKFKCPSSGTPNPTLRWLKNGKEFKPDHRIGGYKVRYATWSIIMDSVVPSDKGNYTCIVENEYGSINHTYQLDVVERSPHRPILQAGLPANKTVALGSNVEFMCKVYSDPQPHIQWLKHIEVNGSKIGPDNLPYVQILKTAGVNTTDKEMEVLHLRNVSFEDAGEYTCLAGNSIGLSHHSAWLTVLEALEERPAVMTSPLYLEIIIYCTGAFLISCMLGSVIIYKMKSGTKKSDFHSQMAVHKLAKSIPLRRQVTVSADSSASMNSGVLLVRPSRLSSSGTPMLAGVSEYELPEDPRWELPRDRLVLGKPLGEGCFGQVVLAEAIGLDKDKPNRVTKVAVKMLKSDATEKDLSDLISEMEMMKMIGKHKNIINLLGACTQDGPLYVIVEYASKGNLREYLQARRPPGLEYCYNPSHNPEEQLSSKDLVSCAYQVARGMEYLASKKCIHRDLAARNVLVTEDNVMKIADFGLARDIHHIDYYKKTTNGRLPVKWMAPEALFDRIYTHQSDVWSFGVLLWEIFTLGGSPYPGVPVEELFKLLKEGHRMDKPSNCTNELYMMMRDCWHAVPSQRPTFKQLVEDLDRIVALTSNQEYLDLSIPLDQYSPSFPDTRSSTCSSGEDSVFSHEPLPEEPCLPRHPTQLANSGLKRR

As for `CCN(CC)CCCCNc1ncc2cc(-c3cc(OC)cc(OC)c3)c(NC(=O)NC(C)(C)C)nc2n1` [PD-173074], 1 mg/kg produced 86% inhibition in vivo with Mus musculus [1]. In addition, the IC50 in data set [2] was 17.6 µM; in data set [4], 0.1 µM; in data set [5], 0.001 µM; in [7] it was > 50 µM; in data set [8], 19.8 µM; in [9] it was > 50 µM. The same molecule showed an inhibition in vivo at 2 mg/kg in the data set on Mus musculus [3] of 81%. Moreover, the Activity entry in data set [6] is “Non-Toxic”.
